Measured values published in patent US10406098B2, “Injection solution comprising a non-nucleoside reverse-transcriptase inhibitor and poly(lactide-co-glycolide)” (Evonik Roehm GmbH, priority 2015, dated 2019).

Experiment: Release test in phosphate buffer saline pH 7.4 (standard body-fluid single compartment release experiment)
Assay type: physicochemical
Conditions: PBS pH 7.4, samples at 0, 1, 2, 4, 24 and 96 hours, HPLC; comparative statement
Experimental: Example Performance in a standard body-fluid single compartment release experiment Release Test: 100 ml of phosphate buffer saline pH 7.4 (PBS, British Pharmacopoeia) are given to a 200 ml volumetric flask. […] PBS-buffer is filled up to 200 ml. API release studies were performed in triplicate. Samples (2 ml) for HPLC analysis were taken at 0, 1, 2, 4, 24 and 96 hours and centrifuged for 5 minutes at 13400 rpm the supernatant was injected according to the HPLC method in Table 5. At 2, 4 and 24 hours 100 ml of the dissolution medium were pulled and 100 ml of fresh buffer was added (PBS 7.4). [table]

With `O=C1Nc2ccc(Cl)cc2[C@@](C#CC2CC2)(C(F)(F)F)O1` [Efavirenz] the “release / release rate of the active ingredient” value was “much higher”.
